In patent publication US20240300980A1, “HETEROCYCLIC COMPOUNDS AS KRAS INHIBITOR, AND PREPARATION THEREFOR AND USE THEREOF IN TREATMENT” (SHANGHAI KECHOW PHARMA, INC., priority 2021, published 2024):

System: AGS cells (KRAS^G12D)
Assay: Detection of cell proliferation in vitro by MTT/MTS method (cell activity experiment)
Format: cell-based
Settings: Homo sapiens, AGS, 72 h, AGS cells; MTT/MTS; 3 days of drug treatment; read-out: AGS IC50
Summary of the method: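 After 3-day compound exposure (final DMSO 0.5%), viability of AGS (KRAS G12D) cells, plated 1000/well one day before dosing, was measured at 490 nm following 4 h MTT or MTS incubation. IC50 was fitted from dose–effect curves relative to DMSO-treated wells.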

SMILES | IC50 [nM]
CC[C@@H]1CCc2cc(O)cc(-c3ncc4c(N5CC6CCC(C5)N6)nc(OC[C@@]56CCCN5C[C@H](F)C6)nc4c3F)c21 (single isomer, unassigned) [Example 221, (R)-7-(4-((1R,5S)-3,8-diazabicyclo[3.2.1]octan-3-yl)-8-fluoro-2-(((2R,7aS)-2-fluorotetrahydro-1H-pyrrolizin-7a(5H)-yl)methoxy)pyrido[4,3-d]pyrimidin-7-yl)-1-ethyl-2,3-dihydro-1H-inden-5-ol or (S)-7-(4-((1R,5S)-3,8-diazabicyclo[3.2.1]octan-3-yl)-8-fluoro-2-(((2R,7aS)-2-fluorotetrahydro-1H-pyrrolizin-7a(5H)-yl)methoxy)pyrido[4,3-d]pyrimidin-7-yl)-1-ethyl-2,3-dihydro-1H-inden-5-ol] | 875
Oc1cc2c(c(-c3ncc4c(N5C[C@H]6CC[C@@H](C5)N6)nc(OC[C@@]56CCCN5C[C@H](F)C6)nc4c3F)c1)C1CC1CC2 (stereo partly drawn) [Example 246, 7-(4-((1R,5S)-3,8-diazabicyclo[3.2.1]octan-3-yl)-8-fluoro-2-(((2R,7aS)-2-fluorotetrahydro-1H-pyrrolizin-7a(5H)-yl)methoxy)pyrido[4,3-d]pyrimidin-7-yl)-1a,2,3,7b-tetrahydro-1H-cyclopropa[a]naphthalen-5-ol] | 109
C#Cc1cccc2cc(O)cc(-c3ncc4c(N5CC6CCC(C5)C6O)nc(OC[C@@]56CCCN5C[C@H](F)C6)nc4c3F)c12 (stereo partly drawn) [Example 61, (1R,5S,8R)-3-(7-(8-ethynyl-3-hydroxynaphthalen-1-yl)-8-fluoro-2-(((2R, 7aS)-2-fluorotetrahydro-1H-pyrrolizin-7a(5H)-yl)methoxy)pyrido[4,3-d]pyrimidin-4-yl)-3-azabicyclo[3.2.1] octan-8-ol] | > 2500
C#Cc1cc2c(N3C[C@H]4CC[C@@H](C3)N4)nc(OC[C@@]34CCCN3C[C@H](F)C4)nc2c(F)c1-c1cc(O)cc2c1C(CC)CC2 (stereo partly drawn) [Example 371, 7-(4-((1R,5S)-3,8-diazabicyclo[3.2.1]octan-3-yl)-6-ethynyl-8-fluoro-2-(((2R,7aS)-2-fluorotetrahydro-1H-pyrrolizin-7a(5H)-yl)methoxy)quinazolin-7-yl)-1-ethyl-2,3-dihydro-1H-inden-5-ol] | 85
CCc1ccc2cc(O)cc(-c3ncc4c(N5C[C@H]6CC[C@@H](C5)N6)nc(OC[C@@]56CCCN5C[C@H](F)C6)nc4c3F)n12 [Example 351, 5-(4-((1R,5S)-3,8-diazabicyclo[3.2.1]octan-3-yl)-8-fluoro-2-(((2R,7aS)-2-fluorotetrahydro-1H-pyrrolizin-7a(5H)-yl)methoxy)pyrido[4,3-d]pyrimidin-7-yl)-3-ethylindolizin-7-ol] | 30
C#Cc1cccc2cc(O)cc(-c3ncc4c(N5CC6CCCNC6C5)nc(OC[C@@]56CCCN5C[C@H](F)C6)nc4c3F)c12 (stereo partly drawn) [Example 53, 5-ethynyl-4-(8-fluoro-2-(((2R,7aS)-2-fluorotetrahydro-1H-pyrrolizin-7a(5H)-yl)methoxy)-4-(octahydro-6H-pyrrolo[3,4-b]pyridin-6-yl)pyrido[4,3-d]pyrimidin-7-yl)naphthalen-2-ol] | > 2500
Oc1cc(-c2c3c(c4c(N5C[C@H]6CC[C@@H](C5)N6)nc(OC[C@@]56CCCN5C[C@H](F)C6)nc4c2F)OCO3)c2ccccc2c1 [Example 389, 4-(9-((1R,5S)-3,8-diazabicyclo[3.2.1]octan-3-yl)-5-fluoro-7-(((2R,7aS)-2-fluorotetrahydro-1H-pyrrolizin-7a(5H)-yl)methoxy)-[1,3]dioxolo[4,5-f]quinazolin-4-yl)naphthalen-2-ol] | 180
C#Cc1c(F)ccc2cc(O)cc(-c3ccc4c(N5CC(C(N)=O)C5)nc(OC[C@@]56CCCN5C[C@H](F)C6)nc4c3F)c12 [Example 215, 1-(7-(8-ethynyl-7-fluoro-3-hydroxynaphthalen-1-yl)-8-fluoro-2-(((2R,7aS)-2-fluorotetrahydro-1H-pyrrolizin-7a(5H)-yl)methoxy)quinazolin-4-yl)azetidine-3-carboxamide] | > 2500
C#Cc1c(F)ccc2cc(O)cc(-c3c(F)c4nc(OC[C@@]56CCCN5C[C@H](F)C6)nc(N5C[C@H]6CC[C@@H](C5)N6)c4c4cncn34)c12 [Example 398, 4-(1-((1R,5S)-3,8-diazabicyclo[3.2.1]octan-3-yl)-5-fluoro-3-(((2R,7aS)-2-fluorotetrahydro-1H-pyrrolizin-7a(5H)-yl)methoxy)imidazo[1′,5′:1,2]pyrido[4,3-d]pyrimidin-6-yl)-5-ethynyl-6-fluoronaphthalen-2-ol] | 50
CCc1c(F)ccc2cc(O)cc(-c3c(F)c4nc(OC[C@@]56CCCN5C[C@H](F)C6)nc(N5C[C@H]6CC[C@@H](C5)N6)c4c4cncn34)c12 [Example 416, 4-(1-((1R,5S)-3,8-diazabicyclo[3.2.1]octan-3-yl)-5-fluoro-3-(((2R,7aS)-2-fluorotetrahydro-1H-pyrrolizin-7a(5H)-yl)methoxy)imidazo[1′,5′:1,2]pyrido[4,3-d]pyrimidin-6-yl)-5-ethyl-6-fluoronaphthalen-2-ol] | 28
C#Cc1c(F)ccc2cc(O)cc(-c3ccc4c(N5C[C@H]6CC[C@@H](C5)N6)nc(OC[C@@]56CCCN5C[C@H](F)C6)nc4c3F)c12 [Example 91, 4-(4-((1R,5S)-3,8-diazabicyclo[3.2.1]octan-3-yl)-8-fluoro-2-(((2R,7aS)-2-fluorotetrahydro-1H-pyrrolizin-7a(5H)-yl)methoxy)quinazolin-7-yl)-5-ethynyl-6-fluoronaphthalen-2-ol] | 1.3
CCC1c2c(-c3ncc4c(N5C[C@H]6CC[C@@H](C5)N6)nc(OC[C@@]56CCCN5C[C@H](F)C6)nc4c3F)cc(O)cc2C2CC21 (stereo partly drawn) [Example 355, 5-(4-((1R,5S)-3,8-diazabicyclo[3.2.1]octan-3-yl)-8-fluoro-2-(((2R,7aS)-2-fluorotetrahydro-1H-pyrrolizin-7a(5H)-yl)methoxy)pyrido[4,3-d]pyrimidin-7-yl)-6-ethyl-1,1a,6,6a-tetrahydrocyclopropa[a]inden-3-ol] | 20
Oc1cc(-c2ncc3c(N4C[C@H]5CC[C@@H](C4)S5)nc(OC[C@@]45CCCN4C[C@H](F)C5)nc3c2F)c2c(F)cccc2c1 [Example 26, 4-(4-((1R,5S)-8-thia-3-azabicyclo[3.2.1]octan-3-yl)-8-fluoro-2-(((2R, 7aS)-2-fluorotetrahydro-1H-pyrrolizin-7a(5H)-yl)methoxy)pyrido[4,3-d]pyrimidin-7-yl)-5-fluoronaphthalen-2-ol] | 300
C#Cc1c(F)ccc2cc(O)cc(-c3ncc4c(-c5ccn(C(=O)CO)c5)nc(OC[C@@]56CCCN5C[C@H](F)C6)nc4c3F)c12 [Example 86, 1-(3-(7-(8-ethynyl-7-fluoro-3-hydroxynaphthalen-1-yl)-8-fluoro-2-(((2R, 7aS)-2-fluorotetrahydro-1H-pyrrolizin-7a(5H)-yl)methoxy)pyrido[4,3-d]pyrimidin-4-yl)-1H-pyrrol-1-yl)-2-hydroxyethan-1-one] | > 10000
CCc1cccc2cc(O)cc(N3CCc4c(nc(OC[C@@]56CCCN5C[C@H](F)C6)nc4N4C[C@H]5CC[C@@H](C4)N5)C3)c12 [Example 207, 4-(4-((1R,5S)-3,8-diazabicyclo[3.2.1]octan-3-yl)-2-(((2R,7aS)-2-fluorotetrahydro-1H-pyrrolizin-7a(5H)-yl)methoxy)-5,8-dihydropyrido[3,4-d]pyrimidin-7(6H)-yl)-5-ethylnaphthalen-2-ol] | 25
COC1CCc2cc(O)cc(-c3ncc4c(N5C[C@H]6CC[C@@H](C5)N6)nc(OC[C@@]56CCCN5C[C@H](F)C6)nc4c3F)c21 (stereo partly drawn) [Example 269, 7-(4-((1R,5S)-3,8-diazabicyclo[3.2.1]octan-3-yl)-8-fluoro-2-(((2R,7aS)-2-fluorotetrahydro-1H-pyrrolizin-7a(5H)-yl)methoxy)pyrido[4,3-d]pyrimidin-7-yl)-1-methoxy-2,3-dihydro-1H-inden-5-ol] | 30
C#Cc1c(F)ccc2cc(O)cc(-c3ncc4c(N5C[C@H]6CC[C@@H](C5)N6)nc(OC[C@@]56CCCN5C[C@H](F)C6)nc4c3OCC(F)(F)F)c12 [Example 333, 4-(4-((1R,5S)-3,8-diazabicyclo[3.2.1]octan-3-yl)-2-(((2R,7aS)-2-fluorotetrahydro-1H-pyrrolizin-7a(5H)-yl)methoxy)-8-(2,2,2-trifluoroethoxy)pyrido[4,3-d]pyrimidin-7-yl)-5-ethynyl-6-fluoronaphthalen-2-ol] | 455
Oc1cc2c(c(-c3ncc4c(N5C[C@H]6CC[C@@H](C5)N6)nc(OC[C@@]56CCCN5C[C@H](F)C6)nc4c3F)c1)C1(CC2)CC1 [Example 255, 7′-(4-((1R,5S)-3,8-diazabicyclo[3.2.1]octan-3-yl)-8-fluoro-2-(((2R,7aS)-2-fluorotetrahydro-1H-pyrrolizin-7a(5H)-yl)methoxy)pyrido[4,3-d]pyrimidin-7-yl)-2′,3′-dihydrospiro[cyclopropane-1,1′-inden]-5′-ol] | 157
C#Cc1cccc2cc(O)cc(-c3ccc4c(C5C[C@H]6CC[C@@H](C5)N6)nc(OC[C@@]56CCCN5C[C@H](F)C6)nc4c3F)c12 (stereo partly drawn) [Example 138, 4-(4-((1R,5S)-8-azabicyclo[3.2.1]octan-3-yl)-8-fluoro-2-(((2R, 7aS)-2-fluorotetrahydro-1H-pyrrolizin-7a(5H)-yl)methoxy)quinazolin-7-yl)-5-ethynylnaphthalen-2-ol] | > 2500
CC1CCCc2cc(O)cc(-c3c(-c4cn[nH]c4)cc4c(N5C[C@H]6CC[C@@H](C5)N6)nc(OC[C@@]56CCCN5C[C@H](F)C6)nc4c3F)c21 (stereo partly drawn) [Example 376, 4-(4-((1R,5S)-3,8-diazabicyclo[3.2.1]octan-3-yl)-8-fluoro-2-(((2R,7aS)-2-fluorotetrahydro-1H-pyrrolizin-7a(5H)-yl)methoxy)-6-(1H-pyrazol-4-yl)quinazolin-7-yl)-5-methyl-5,6,7,8-tetrahydronaphthalen-2-ol] | 100
